Data on 1 molecule can be found in patent US10035780B2, “Quinazoline scaffold based compounds, pharmaceutical compositions and methods of use thereof” (TECHNION RESEARCH & DEVELOPMENT FOUNDATION LTD., priority 2014, dated 2018).

What is called Ki is a measure of affinity in units of concentration, obtained from inhibition or displacement. The term half-life denotes the time in which the quantity being followed falls by half.

The target of one data set is TSPO (Homo sapiens (Human), UniProt P30536). Type of data set: binding. The note with it: displacement of [3H]PK 11195 from TSPO. As to the method:
Briefly, the assay utilizes radioactive standard ligand [^3H] PK 11195 (1-(2-chlorophenyl)-N-methyl-N-(1-methyl-propyl)-3 isoquinolinecarboxamide), and measures the ability of the compounds of the invention to displace standard ligand in binding to TSPO. Total radioactive binding was determined by measuring the radioactivity of the radioactive ligand-receptor complex, obtained in the reaction of radioactive standard with the TSPO. Radioactive standard and the examined compound were added to the TSPO and after some incubation time the radioactivity of the resulting ligand-receptor complexes was measured with the help of a […]. This radioactivity indicates the binding of the radioactive standard to TSPO. […] This can be expressed as the half maximal inhibitory concentration (IC50), which is a measure of the effectiveness of a compound in inhibiting biological or biochemical function, in this case inhibiting binding of standard radioactive ligand binding to the TSPO. A derivative of the IC50 is the Ki, which is the calculated binding affinity of the novel compound to the TSPO.
Binding to TSPO was evaluated using a [^3H]PK 11195 radio-assay, as described above.
A general note: In a radioligand displacement assay an active substance lowers the binding of a labelled ligand.

For another data set, the system named is R6-2 mice. Format: in vivo. The note with it: chronic s.c. treatment. The text has this:
R6-2 is a transgenic mouse model for Huntington Disease. Huntington Disease in humans is a hereditary neurodegenerative disease affecting motor performance and finally leading to death of the patients having the disease. R6-2 mice (˜120 CAG repeats B6CBA-Tg(HDexon1)62 Gpb/3J) mice were used for the experiments described below. For this purpose, mice obtained from the Jackson Laboratory (ME) were bred. In particular: males genotype: Hemizygous for Tg(HDexon1)62 Gpb, and females from the wildtype background strain B6CBAF1/J were bred according to the protocol of Jackson Laboratory. The male heterozygote offspring (R6-2 mice) were used for determining life span and motor activity, with and without drug treatment. Drug treatment consisted of daily (5 continuous days a week) subcutaneous injections of mice with 20 μl of: saline (sham control), vehicle DMSO (vehicle control), classic TSPO ligand PK 11195 (15 mg/kg), prior art Compound A (15 mg/kg), Compound 1 (15 mg/kg), and compound 1 (7.5 mg/kg). Drug treatment started on week 5 after birth. Quantities were used according to previous studies regarding TSPO ligands. […]
FIG. 6. […] In particular, from week 9, when the first mice death occurred, until week 16, when all mice were dead, average distance covered in an open field, per session, per experimental group, per week was measured in cm. […]

Another data set deals with PC12 cells. The experiment in a line: Differentiation of PC12 cells to neuron like cells, with glutamate. The settings on record: 5 days. Type of data set: cell-based, rat. The procedure: Cell cultures of various human glial type cell lines (T98G, U87MG, A172, U118MG), as well as human neuronal type cell lines SH-SY 5Y and Be(2)-C were used to test the new compounds. In addition, the rat glioma cell line C6 was used. PC12 cells originating from rats were used as another cell line displaying neuronal characteristics. The applicants also have produced, by genetic manipulation, a modified rat C6 glial cell strain and a modified human U118MG glial type cell strain, both under-expressing the TSPO, which allows to study TSPO specific effects, including of the compounds of the invention, which can be done according to methods described previously (Weisinger et al. Biochemistry. 2004; 43:12315-21; Levin et al. 2005; Zeno et al., 2009).
Briefly, PC-12 cells were exposed to Cpd 1, in combination with glutamate, basically as described for the cell cultures of Example 1, and remained under that condition for 5 days.

Data set [1] in a line: Pharmacokinetic properties in the mouse after i.p. administration. Format: in vivo.
The subject of a further data set is U118MG cells. The data set is described as follows: ROS generation at mitochondrial levels induced by glutamate (NAO dye). Type of data set: cell-based, human. The text has this:
Techniques and parameters assayed are summarized here: Total protein levels (Bradford. Anal Biochem. 1976; 72:248-54); TSPO ligand binding assays (Kugler et al. 2008; Levin et al. 2005; Danovich et al. Eur Neuropsychopharmacol. 2008; 18:24-33) cell death, including apoptosis and necrosis and related molecular biological processes (Soustiel et al. Neuropathol Appl Neurobiol. 2008; 34:412-23; Soustiel et al. Exp Neurol. 2008; 214:201-8; Zeno et al. 2009); mitochondrial transmembrane potential collapse (Chelli et al. Biochem Pharmacol. 2004; 68:125-34; Kugler et al. 2008; Zeno et al., 2009; Shargorodsky et al. Apoptosis. 2012; 17:647-65), reactive oxygen species (ROS) generation as a measure of oxidative stress (Veenman et al. 2008; Zeno et al. 2009); TSPO knockdown (Levin et al. 2005; Zeno et al. 2009); expression levels of mitochondrial TSPO and associated proteins (Veenman et al. 2002; Levin et al. 2005; Veenman et al. 2008); gene expression with RT-PCR and microarray analysis (Bode et al. 2012; Veenman et al. 2012). Parameters of inflammation, immune response, migration, and the cell cycle are also tested. All these approaches can also be applied for quality control of the compounds.
Next, the fluorescent dye 10-N-Nonyl-Acridine Orange (NAO) was applied to measure reactive oxygen species (ROS) generation at mitochondrial levels. […]

“Also recorded” adds a separate entry of the source. Read-outs that look alike come from different tables or passages of the source.

TSPO, sequence (P30536 whole entry): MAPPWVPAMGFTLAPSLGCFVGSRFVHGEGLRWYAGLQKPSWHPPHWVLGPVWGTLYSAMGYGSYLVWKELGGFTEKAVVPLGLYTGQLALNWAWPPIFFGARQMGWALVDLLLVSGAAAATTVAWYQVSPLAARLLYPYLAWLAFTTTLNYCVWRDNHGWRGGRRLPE

Molecule `CCN(C)C(=O)Oc1nc(-c2ccccc2)nc2ccccc12` [Compound 1, 2-phenylquinazolin-4-yl ethyl(methyl)carbamate] showed a Ki on TSPO of approximately 60 nM. Moreover, the adverse effects entry in the data set on R6-2 mice is “No adverse effects”. For the same molecule, the “differentiation of PC12 cells toward neuronal type cells” value in the data set on PC12 cells is given as “able to transform PC-12 cells in cell culture to neuron like cells; also recorded: can induce differentiation”. In addition, the “distribution to the brain” value in data set [1] is listed as “quite quickly distributed to the brain”. The Kp in data set [1] (brain, ip, read-out: Uptake ratio to the brain) was 0.2. The molecule further showed a half-life in data set [1] (in vivo, ip) of 3.5 h. The “ROS generation at mitochondrial levels induced by glutamate” value was “prevents ROS generation” in the data set on U118MG cells and “attenuated” in the data set with U118MG cells (listed as Cpd 1).
